Results taken from US20230042936A1, “PYRIDO[2,3-d]PYRIMIDIN-7(8H)-ONES AS CDK INHIBITORS” (PROSENESTAR LLC, priority 2020, published 2023).
Entries after “also recorded” stand apart in the source; their conditions may differ.

What was measured:
[1] = system: luminal-like (ZR75-1, T47D, MCF7) and non-luminal (HCC1143, MDA-MB-231, BT549, MDA-MB-468) breast cancer cell lines; assay: Relative cell growth in a panel of breast cancer cell lines (6 days); assay type: cell-based, human; details: 6 days at GI50 dose (determined in MDA-MB-231); FIG. 5
Description: Data are mean±s.e.m. (3 technical replicates).
Relative cell proliferation was calculated by counting cell number at day 6 in treated cells versus cells treated with vehicle (DMSO).

[2] = system: pRB phosphorylation and cell cycle markers in MDA-MB-231 and MDA-MB-468 cells; assay: Immunoblotting of cell cycle markers; assay type: cell-based, human; details: GI50 dose, 48 hours; FIG. 6
Description: MDA-MB-231 and MDA-MB-468 cells were treated with the indicated compounds using the G150 corresponding to the MDA-MB-231 cell line, and 48 hours later lysed in Laemmli buffer (60 mM Tris-Cl pH 6.8, 10% Glycerol, 2% SDS). Protein concentration was determined using BCA method (Pierce).

CC(=O)c1c(C)c2cnc(Nc3ccc(N4CCC(CCCO)CC4)cc3)nc2n(C2CCCC2)c1=O [PS009, 6-acetyl-8-cyclopentyl-2-((4-(4-(3-hydroxypropyl)piperidin-1-yl)phenyl)amino)-5-methylpyrido[2,3-d]pyrimidin-7(8H)-one]
relative cell growth, luminal-like and non-luminal breast cancer cell lines [1]: efficient in both pRB-wild-type and mutant cell lines; also recorded: efficiently inhibit both luminal and non-luminal breast cancer cells; also recorded: able to inhibit proliferation in non-luminal, pRB-mutant breast cancer cells lines | levels of cell cycle markers [2]: reduced levels of most cell cycle markers | pRB phosphorylation [2]: strong inhibition
